Source: the supplement of paper PMC10307832

Key:
Test in all cases: relative viability (nuclei count vs DMSO), 5 days (fraction); higher = more cells survive
[1] = tested on: NCI-H441
Procedure, shortened: (§1)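 Lung cancer cell lines were seeded in 1536-well plates and dosed by pin tool the next day, with either a single drug or a fixed anchor-drug dose combined with five library-drug doses (not always all listed) spaced in √10 steps. Five days later, one step fixed the cells and stained their nuclei (final 0.05% Triton X-100, 1% formaldehyde, 1 ug/ml Hoechst), and nuclei were counted on 4× images. Relative viability is the nuclei count in treated wells divided by the count in vehicle wells, and each value is the median of duplicate plates.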

[2] = tested on: NCI-H322M
Procedure, shortened: as §1

[3] = tested on: NCI-H1975
Procedure, shortened: as §1

[4] = tested on: HOP-62
Procedure, shortened: as §1

[5] = tested on: ChaGo-K-1
Procedure, shortened: as §1

[6] = tested on: HCC-15
Procedure, shortened: as §1

[7] = tested on: EPLC-272H
Procedure, shortened: as §1

[8] = tested on: EMC-BAC-2
Procedure, shortened: as §1

[9] = tested on: NCI-H2085
Procedure, shortened: as §1

[10] = tested on: HCC-78
Procedure, shortened: as §1

[11] = tested on: NCI-H2126
Procedure, shortened: as §1

[12] = tested on: NCI-H2023
Procedure, shortened: as §1

[13] = tested on: NCI-H1915
Procedure, shortened: as §1

[14] = tested on: UMC-11
Procedure, shortened: as §1

[15] = tested on: NCI-H1755
Procedure, shortened: as §1

[16] = tested on: CAL-12T
Procedure, shortened: as §1

[17] = tested on: NCI-H3122
Procedure, shortened: as §1

[18] = tested on: NCI-H1666
Procedure, shortened: as §1

[19] = tested on: COR-L 105
Procedure, shortened: as §1

[20] = tested on: ABC-1
Procedure, shortened: as §1

[21] = tested on: LXF-289
Procedure, shortened: as §1

Nc1ccn([C@@H]2O[C@H](CO)[C@@H](O)[C@@H]2O)c(=O)n1 [Cytarabine] + CC(C)C[C@H](NC(=O)[C@H](Cc1ccccc1)NC(=O)c1cnccn1)B(O)O [Bortezomib] (partner 0.002 µM)
relative viability ([1]; first compound 0.005 µM): 0.612 | relative viability ([1]; first compound 0.01581 µM): 0.376 | relative viability ([1]; first compound 0.05 µM): 0.483 | relative viability ([1]; first compound 0.1581 µM): 0.283 | relative viability ([1]; first compound 0.5 µM): 0.162 | relative viability ([2]; first compound 0.005 µM): 0.718 | relative viability ([2]; first compound 0.01581 µM): 1.01 | relative viability ([2]; first compound 0.05 µM): 0.717 | relative viability ([2]; first compound 0.1581 µM): 0.472 | relative viability ([2]; first compound 0.5 µM): 0.404 | relative viability ([3]; first compound 0.005 µM): 0.293 | relative viability ([3]; first compound 0.01581 µM): 0.323 | relative viability ([3]; first compound 0.05 µM): 0.276 | relative viability ([3]; first compound 0.1581 µM): 0.23 | relative viability ([3]; first compound 0.5 µM): 0.213 | relative viability ([4]; first compound 0.005 µM): 0.58 | relative viability ([4]; first compound 0.01581 µM): 0.291 | relative viability ([4]; first compound 0.05 µM): 0.208 | relative viability ([4]; first compound 0.1581 µM): 0.174 | relative viability ([4]; first compound 0.5 µM): 0.0493 | relative viability ([5]; first compound 0.005 µM): 0.707 | relative viability ([5]; first compound 0.01581 µM): 0.559 | relative viability ([5]; first compound 0.05 µM): 0.443 | relative viability ([5]; first compound 0.1581 µM): 0.437 | relative viability ([5]; first compound 0.5 µM): 0.499 | relative viability ([6]; first compound 0.005 µM): 0.795 | relative viability ([6]; first compound 0.01581 µM): 1.03 | relative viability ([6]; first compound 0.05 µM): 1.16 | relative viability ([6]; first compound 0.1581 µM): 0.883 | relative viability ([6]; first compound 0.5 µM): 0.668 | relative viability ([7]; first compound 0.005 µM): 0.906 | relative viability ([7]; first compound 0.01581 µM): 0.831 | relative viability ([7]; first compound 0.05 µM): 0.53 | relative viability ([7]; first compound 0.1581 µM): 0.412 | relative viability ([7]; first compound 0.5 µM): 0.453 | relative viability ([8]; first compound 0.005 µM): 1.03 | relative viability ([8]; first compound 0.01581 µM): 1.09 | relative viability ([8]; first compound 0.05 µM): 0.807 | relative viability ([8]; first compound 0.1581 µM): 0.254 | relative viability ([8]; first compound 0.5 µM): 0.229 | relative viability ([9]; first compound 0.005 µM): 0.983 | relative viability ([9]; first compound 0.01581 µM): 0.913 | relative viability ([9]; first compound 0.05 µM): 0.946 | relative viability ([9]; first compound 0.1581 µM): 0.631 | relative viability ([9]; first compound 0.5 µM): 0.66 | relative viability ([10]; first compound 0.005 µM): 0.569 | relative viability ([10]; first compound 0.01581 µM): 0.444 | relative viability ([10]; first compound 0.05 µM): 0.445 | relative viability ([10]; first compound 0.1581 µM): 0.378 | relative viability ([10]; first compound 0.5 µM): 0.252 | relative viability ([11]; first compound 0.005 µM): 1.08 | relative viability ([11]; first compound 0.01581 µM): 1.07 | relative viability ([11]; first compound 0.05 µM): 1.09 | relative viability ([11]; first compound 0.1581 µM): 0.703 | relative viability ([11]; first compound 0.5 µM): 0.699 | relative viability ([12]; first compound 0.005 µM): 0.469 | relative viability ([12]; first compound 0.01581 µM): 0.198 | relative viability ([12]; first compound 0.05 µM): 0.17 | relative viability ([12]; first compound 0.1581 µM): 0.0751 | relative viability ([12]; first compound 0.5 µM): 0.0603 | relative viability ([13]; first compound 0.005 µM): 0.74 | relative viability ([13]; first compound 0.01581 µM): 0.952 | relative viability ([13]; first compound 0.05 µM): 0.8 | relative viability ([13]; first compound 0.1581 µM): 0.385 | relative viability ([13]; first compound 0.5 µM): 0.25 | relative viability ([14]; first compound 0.005 µM): 0.339 | relative viability ([14]; first compound 0.01581 µM): 0.381 | relative viability ([14]; first compound 0.05 µM): 0.341 | relative viability ([14]; first compound 0.1581 µM): 0.155 | relative viability ([14]; first compound 0.5 µM): 0.155 | relative viability ([15]; first compound 0.005 µM): 0.922 | relative viability ([15]; first compound 0.01581 µM): 0.88 | relative viability ([15]; first compound 0.05 µM): 0.663 | relative viability ([15]; first compound 0.1581 µM): 0.282 | relative viability ([15]; first compound 0.5 µM): 0.294 | relative viability ([16]; first compound 0.005 µM): 0.933 | relative viability ([16]; first compound 0.01581 µM): 0.715 | relative viability ([16]; first compound 0.05 µM): 0.948 | relative viability ([16]; first compound 0.1581 µM): 0.379 | relative viability ([16]; first compound 0.5 µM): 0.267 | relative viability ([17]; first compound 0.005 µM): 0.932 | relative viability ([17]; first compound 0.01581 µM): 0.96 | relative viability ([17]; first compound 0.05 µM): 0.856 | relative viability ([17]; first compound 0.1581 µM): 0.676 | relative viability ([17]; first compound 0.5 µM): 0.614 | relative viability ([18]; first compound 0.005 µM): 0.7 | relative viability ([18]; first compound 0.01581 µM): 0.705 | relative viability ([18]; first compound 0.05 µM): 0.741 | relative viability ([18]; first compound 0.1581 µM): 0.353 | relative viability ([18]; first compound 0.5 µM): 0.318 | relative viability ([19]; first compound 0.005 µM): 0.676 | relative viability ([19]; first compound 0.01581 µM): 0.699 | relative viability ([19]; first compound 0.05 µM): 0.464 | relative viability ([19]; first compound 0.1581 µM): 0.399 | relative viability ([19]; first compound 0.5 µM): 0.285 | relative viability ([20]; first compound 0.005 µM): 0.307 | relative viability ([20]; first compound 0.01581 µM): 0.345 | relative viability ([20]; first compound 0.05 µM): 0.285 | relative viability ([20]; first compound 0.1581 µM): 0.233 | relative viability ([20]; first compound 0.5 µM): 0.29 | relative viability ([21]; first compound 0.005 µM): 0.887 | relative viability ([21]; first compound 0.01581 µM): 0.936 | relative viability ([21]; first compound 0.05 µM): 0.901 | relative viability ([21]; first compound 0.1581 µM): 0.474 | relative viability ([21]; first compound 0.5 µM): 0.258
